Reference: PMC4259414, “HS-133, a novel fluorescent phosphatidylinositol 3-kinase inhibitor as a potential imaging and anticancer agent for targeted therapy” (Oncotarget, 2014)
Where two headings read alike, the source gives them in different places.

How the values were obtained:
PI3Kα = molecular target: T1, PI3Kα (Homo sapiens, UniProt P42336); test: radiometric kinase assay ([γ-33P]-ATP), Reaction Biology Corp.; format: biochemical
T1 construct: purchased Reaction Biology Corp. (Malvern, PA), contract assay service

SkBr3 cells [1] = test: cell viability MTT assay, SkBr3; format: cell-based; conditions: Homo sapiens, SK-BR-3, 48 h, SkBr3, 48 h, read-out: IC50, cell growth inhibition
Procedure: (§1) To determine whether HS-133 can function as a novel anticancer compound, we tested the ability of this compound to inhibit the growth of breast cancer cell lines (SkBr3, T47D, and MCF-7) using an MTT assay. The cells were exposed to various concentrations (0.5–50 μM) of HS-133 for 48 h. As shown in Fig. 3A-C, HS-133 inhibited the growth of all three breast cancer cell lines in a dose-dependent manner.
(§2) Cell viability was performed by an MTT assay. Briefly, the SkBr3, T47D, and MCF-7 cells were plated at a density of 1-5 × 10^3 cells/well in a 96-well plate for 48 h. The medium was removed, and the cells were treated with either DMSO as control or various concentrations of HS-133. The final concentration of DMSO in the medium was ≤ 0.1% (v/v). After the cells were incubated for 48 h, 20 μl of MTT solutions (2 mg/ml) was added to each well for another 4 h at 37°C. The formazan crystals that formed were dissolved in DMSO (200 μl/well) via constant shaking for 5 min. The plate was then read on a microplate reader at 540 nm. Three replicate wells were used for each analysis. The median inhibitory concentration (IC50, defined as the drug concentration at which cell growth was inhibited by 50%) was assessed from the dose-response curves.

MCF-7 cells = test: cell viability MTT assay, MCF-7; format: cell-based; conditions: Homo sapiens, MCF7, MCF-7, 48 h, read-out: IC50, cell growth inhibition
Procedure: as §1, §2

SkBr3 cells [2] = test: cell cycle analysis by PI staining and flow cytometry; format: cell-based, human; conditions: SkBr3, 1, 10, 50 μM, 24 h
Procedure: To examine the relationship between the growth inhibitory effect of HS-133 and cell cycle progression, we analyzed cell cycle distribution of SkBr3 cells by HS-133 using a flow cytometry. The SkBr3 cells were treated for 24 h with various concentrations of HS-133 (1, 10, 50 μM) and collected and stained with PI and then analyzed by FACS. […] The up-regulation of p27, cyclin dependent kinase (CDK) inhibitor, is related to G0/G1 cell cycle arrest and contributes to the down-regulation of cyclin D1 [31]. Thus, we evaluated the effect of HS-133 on the protein expressions of p27 and cyclin D1. HS-133 increased the expression of p27 while decreasing cyclin D1 expression (Fig. 4C).
The SkBr3 cells were plated in 100 mm-diameter culture dishes. On the following day, the cells were treated with various concentrations of HS-133 or 0.1% DMSO for 24 h. The floating and adherent cells were collected and fixed in cold 70% ethanol at 4°C overnight. […] The events were evaluated for each sample and the cell cycle distribution was analyzed using Cell Quest software (Becton Dickinson). The results were presented as the number of cells versus the amount of DNA, as indicated by the intensity of a fluorescence signal. […]

HUVECs = test: wound migration assay; format: cell-based, human; conditions: HUVECs, 1, 5, or 10 μM, 18 h
Procedure: To examine the effect of HS-133 on angiogenesis, a capillary tube formation assay using human umbilical vein endothelial cells (HUVECs) was performed. […] Cell migration is critical for the endothelial cells to form blood vessels during angiogenesis, and is necessary for tumor growth and metastasis. Thus, we conducted a wound migration assay to study the effect of HS-133 on cell migration. […] Considering that endothelial migration and tube formation have all highly relevant properties of angiogenesis, our results illustrated that HS-133 has the ability to block angiogenesis.
HUVECs plated on 60 mm-diameter culture dishes at 90% confluence, were wounded 2 mm in width with a sterile razor blade and marked at the injury line. […] HUVECs were allowed to migrate for 18 h and were rinsed with a serum-free medium, followed by fixing with absolute methanol and staining with Giemsa (Sigma-Aldrich). Migration was quantitated with counting the number of cells that moved beyond the reference line.

[3] = pharmacokinetic study in mouse; format: in vivo; conditions: plasma, ICR mice; for AUC(0-t): read-out: AUC0–24hr; for half-life: read-out: T1/2, λ (converted)

T1 sequence (P42336 whole entry): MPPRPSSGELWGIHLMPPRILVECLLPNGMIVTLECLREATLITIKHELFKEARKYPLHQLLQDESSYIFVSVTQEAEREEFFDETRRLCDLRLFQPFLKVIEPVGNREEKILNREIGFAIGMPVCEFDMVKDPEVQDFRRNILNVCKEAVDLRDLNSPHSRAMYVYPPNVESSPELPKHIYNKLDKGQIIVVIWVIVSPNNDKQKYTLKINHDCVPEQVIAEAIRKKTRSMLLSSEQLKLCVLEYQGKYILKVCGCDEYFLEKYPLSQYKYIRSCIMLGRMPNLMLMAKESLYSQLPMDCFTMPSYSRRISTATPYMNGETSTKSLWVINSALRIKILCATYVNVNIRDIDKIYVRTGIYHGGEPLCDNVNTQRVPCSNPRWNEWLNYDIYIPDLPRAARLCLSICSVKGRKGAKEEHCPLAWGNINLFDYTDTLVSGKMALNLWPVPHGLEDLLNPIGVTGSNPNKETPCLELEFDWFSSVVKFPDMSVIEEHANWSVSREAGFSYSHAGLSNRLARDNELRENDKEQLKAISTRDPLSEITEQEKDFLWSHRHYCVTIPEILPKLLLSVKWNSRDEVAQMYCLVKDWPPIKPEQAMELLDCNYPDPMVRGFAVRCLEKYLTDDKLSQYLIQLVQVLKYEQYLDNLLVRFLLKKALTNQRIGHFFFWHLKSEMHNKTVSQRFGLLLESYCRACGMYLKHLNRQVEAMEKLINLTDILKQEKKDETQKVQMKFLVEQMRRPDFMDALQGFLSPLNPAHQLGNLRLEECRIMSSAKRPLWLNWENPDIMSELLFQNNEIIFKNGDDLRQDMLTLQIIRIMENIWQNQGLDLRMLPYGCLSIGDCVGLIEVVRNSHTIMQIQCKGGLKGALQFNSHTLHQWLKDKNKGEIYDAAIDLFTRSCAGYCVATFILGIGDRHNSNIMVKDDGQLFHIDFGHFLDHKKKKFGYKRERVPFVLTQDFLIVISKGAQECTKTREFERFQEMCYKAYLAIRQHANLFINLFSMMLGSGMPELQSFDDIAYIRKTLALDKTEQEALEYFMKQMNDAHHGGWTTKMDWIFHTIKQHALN
T1 sequence (P27986 whole entry partner): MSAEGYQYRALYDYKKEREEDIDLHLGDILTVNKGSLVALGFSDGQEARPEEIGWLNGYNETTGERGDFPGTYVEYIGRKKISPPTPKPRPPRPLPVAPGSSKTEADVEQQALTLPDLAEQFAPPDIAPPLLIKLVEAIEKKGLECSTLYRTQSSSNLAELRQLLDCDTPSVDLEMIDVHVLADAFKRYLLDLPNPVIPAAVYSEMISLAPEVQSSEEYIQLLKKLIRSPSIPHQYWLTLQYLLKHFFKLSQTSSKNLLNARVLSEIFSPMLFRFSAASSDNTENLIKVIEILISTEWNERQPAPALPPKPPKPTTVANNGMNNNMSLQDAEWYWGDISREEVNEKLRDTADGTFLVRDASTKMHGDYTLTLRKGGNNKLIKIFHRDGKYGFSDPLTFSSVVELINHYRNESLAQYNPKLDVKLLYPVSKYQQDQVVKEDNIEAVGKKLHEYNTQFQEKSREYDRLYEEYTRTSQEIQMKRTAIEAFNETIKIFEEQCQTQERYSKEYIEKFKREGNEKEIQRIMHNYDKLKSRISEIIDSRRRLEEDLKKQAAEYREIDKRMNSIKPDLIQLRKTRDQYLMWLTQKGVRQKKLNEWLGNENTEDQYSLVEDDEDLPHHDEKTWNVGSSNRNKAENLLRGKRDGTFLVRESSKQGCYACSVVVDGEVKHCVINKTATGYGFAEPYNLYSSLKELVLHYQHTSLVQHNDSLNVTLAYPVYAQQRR

Work on CC(=O)Nc1ccc(-c2nc3c(c(=O)n(C)c(=O)n3C)n2-c2cccc(F)c2)cc1 [HS-133, N-(4-(7-(3-Fluorophenyl)-1,3-dimethyl-2,6-dioxo-2,3,6,7-tetrahydro-1H-purin-8-yl)phenyl) acetamide] yielded an EC50 (PI3Kα; Fig. 2A, read-out: EC50 (printed in Fig. 2A), inhibitory activity against PI3Kα in vitro) of 0.992 µM, an IC50 (PI3Kα; radiometric kinase assay, read-out: IC50 against PI3Kα) of 0.992 µM and an IC50 (SkBr3 cells [1]) of 46.8 µM. For the same molecule, the IC50 (MCF-7 cells) was 9.15 µM, the cell cycle distribution (SkBr3 cells [2]) was “increased the number of cells in the G0/G1 phase” and the cell migration (HUVECs) was “significantly inhibited”. It also gave a Tmax ([3]; ICR, po, 5 mg/kg, p.o. 5 mg/kg) of about 4.8 h, an AUC(0-inf) ([3]; iv, i.v. 5 mg/kg) of 3.41 µg·h/mL and an MRT ([3]; iv, i.v. 5 mg/kg) of 8.2 ± 0.8 h. For the same molecule, the clearance ([3]; iv, i.v. 5 mg/kg) was 1.48 L/h/kg, the AUC(0-t) ([3]; iv, i.v. 5 mg/kg) was 3.19 µg·h/mL and the half-life ([3]; iv, i.v. 5 mg/kg) was 6.4 ± 0.92 h. For the same molecule, the Vd ([3]; iv, i.v. 5 mg/kg, read-out: Vss) was 12 L/kg, the bioavailability ([3]; oral, p.o. vs i.v. 5 mg/kg, read-out: F (bioavailability)) was 95.6% and the AUC(0-inf) ([3]; po, p.o. 5 mg/kg) was 3.26 µg·h/mL. It also gave a Cmax ([3]; po, p.o. 5 mg/kg) of 0.236 ± 0.034 µg/mL, an MRT ([3]; po, p.o. 5 mg/kg) of 9.5 ± 1.9 h and an AUC(0-t) ([3]; po, p.o. 5 mg/kg) of 3 µg·h/mL. It also gave a half-life ([3]; po, p.o. 5 mg/kg) of 6.1 ± 1.4 h.
